Assay results from patent US7064229B2, “Succinic acid derivatives” (Bayer Healthcare AG, priority 2001, dated 2006).

Columns and labels:
[1] = target: α4β1 integrin (VLA-4) on Ramos cells / recombinant human VCAM-1 (extracellular domains 1–3) (Homo sapiens, UniProt P05556+P13612); assay: Adhesion of Ramos cells to immobilized VCAM-1 (domains 1–3); format: cell-based; design: host or cells: Ramos cells; conditions: Ramos VCAM-1 assay; observed IC50 value ranges
From the text: In Vitro Assay: Adhesion of Ramos Cells to Immobilized VCAM-1 (Domains 1–3) Preparation of VCAM-1 (Extracellular Domains 1–3)
Complementary DNA (cDNA) encoding 7-domain form of VCAM-1 (GenBank accession #M60335) was obtained using Rapid-Screen™ cDNA library panels (OriGene Technologies, Inc) at Takara Gene Analysis Center (Shiga, Japan). The primers used were 5′-CCAAGGCAGAGTACGCAAAC-3′ (sense) and 5′-TGGCAGGTATTATTAAGGAG-3′ (antisense). PCR amplification of the 3-domain VCAM-1 cDNA was perform using Pƒ. DNA polymerase (Stratagene) with the following sets of primers: (U-VCAMdl-3) 5′-CCATATGGTACCTGATCAATTTAAAATCGAGACCACCCCAGAA-3′; (L-VCAMdl-3) 5′-CCATATAGCAATCCTAGGTCCAGGGGAGATCTCAACAGTAAA-3′. PCR cycle was 94° C. for 45 sec, 55° C. for 45 sec, 72° C. for 2 min, repeating 15 cycles. After the purification of the PCR product, the fragment was digested with KpnI-AvrII. The digested fragment was ligated into pBluescript IISK(−) (Strategene), which was linearized by digesting with KpnI-XhoI. The ligation was followed by transformation to a Dam/Dcm methylase-free E. coli strain SCS110 (Strategene) to create the donor plasmid pHH7. To direct VCAM-1 molecule into the insect cell secretory pathway, the VCAM-1 coding sequence was fused to signal peptide sequence of honeybee melittin. The resulting melittin-VCAM fusion was placed in correct orientation to the baculovirus polyhedrin promoter. Baculovirus transfer vector containing first 3-domain form VCAM-1 (pH10) was constructed by ligation of 0.9 kb fragment from AvrII/Klenow/BclI digests of pH7 into SalI/Klenow/BamHI digests of pMelBacB (Invitrogen). […] The recombinant virus was amplified by infection to High-Five™ insect cells for 5–6 days, and virus titer was determined by plaque assay.
High-Five™ insect cells were pelleted in a 225 ml conical tube by centrifugation at 1000 rpm for 5 min. […] Protein concentration was determined by using Coomassie protein assay reagent (Pierce) according to the manufacture's instruction. […]
Preparation of Fluorescence Labeled Ramos Cells […]

α4β1 integrin (VLA-4) on Ramos cells / recombinant human VCAM-1 (extracellular domains 1–3), sequence (P13612 34-1032): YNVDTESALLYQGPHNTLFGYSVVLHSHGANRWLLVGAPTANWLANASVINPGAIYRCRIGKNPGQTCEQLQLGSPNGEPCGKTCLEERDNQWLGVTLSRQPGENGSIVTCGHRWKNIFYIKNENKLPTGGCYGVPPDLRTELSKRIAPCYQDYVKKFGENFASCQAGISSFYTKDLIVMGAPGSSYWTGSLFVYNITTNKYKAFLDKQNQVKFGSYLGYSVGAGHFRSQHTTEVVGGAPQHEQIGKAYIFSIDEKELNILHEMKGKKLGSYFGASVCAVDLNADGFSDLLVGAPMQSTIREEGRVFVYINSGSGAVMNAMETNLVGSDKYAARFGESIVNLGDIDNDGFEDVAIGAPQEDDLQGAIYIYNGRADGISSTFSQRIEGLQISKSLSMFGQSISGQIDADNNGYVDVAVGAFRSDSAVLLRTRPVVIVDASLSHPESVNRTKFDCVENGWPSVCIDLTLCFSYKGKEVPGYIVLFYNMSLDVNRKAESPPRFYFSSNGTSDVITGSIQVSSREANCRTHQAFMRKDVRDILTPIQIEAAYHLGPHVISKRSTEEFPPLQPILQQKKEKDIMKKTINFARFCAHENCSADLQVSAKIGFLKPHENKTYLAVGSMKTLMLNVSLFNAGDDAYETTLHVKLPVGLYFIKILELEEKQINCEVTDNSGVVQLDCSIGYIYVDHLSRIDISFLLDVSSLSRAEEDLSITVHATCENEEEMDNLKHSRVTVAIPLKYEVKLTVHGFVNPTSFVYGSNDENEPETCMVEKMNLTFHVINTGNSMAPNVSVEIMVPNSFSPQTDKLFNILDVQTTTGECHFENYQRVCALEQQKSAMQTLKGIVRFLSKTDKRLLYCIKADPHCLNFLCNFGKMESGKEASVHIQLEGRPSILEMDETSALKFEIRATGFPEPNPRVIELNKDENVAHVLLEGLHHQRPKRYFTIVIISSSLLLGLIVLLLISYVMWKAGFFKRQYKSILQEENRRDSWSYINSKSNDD
α4β1 integrin (VLA-4) on Ramos cells / recombinant human VCAM-1 (extracellular domains 1–3), sequence (P05556 21-798): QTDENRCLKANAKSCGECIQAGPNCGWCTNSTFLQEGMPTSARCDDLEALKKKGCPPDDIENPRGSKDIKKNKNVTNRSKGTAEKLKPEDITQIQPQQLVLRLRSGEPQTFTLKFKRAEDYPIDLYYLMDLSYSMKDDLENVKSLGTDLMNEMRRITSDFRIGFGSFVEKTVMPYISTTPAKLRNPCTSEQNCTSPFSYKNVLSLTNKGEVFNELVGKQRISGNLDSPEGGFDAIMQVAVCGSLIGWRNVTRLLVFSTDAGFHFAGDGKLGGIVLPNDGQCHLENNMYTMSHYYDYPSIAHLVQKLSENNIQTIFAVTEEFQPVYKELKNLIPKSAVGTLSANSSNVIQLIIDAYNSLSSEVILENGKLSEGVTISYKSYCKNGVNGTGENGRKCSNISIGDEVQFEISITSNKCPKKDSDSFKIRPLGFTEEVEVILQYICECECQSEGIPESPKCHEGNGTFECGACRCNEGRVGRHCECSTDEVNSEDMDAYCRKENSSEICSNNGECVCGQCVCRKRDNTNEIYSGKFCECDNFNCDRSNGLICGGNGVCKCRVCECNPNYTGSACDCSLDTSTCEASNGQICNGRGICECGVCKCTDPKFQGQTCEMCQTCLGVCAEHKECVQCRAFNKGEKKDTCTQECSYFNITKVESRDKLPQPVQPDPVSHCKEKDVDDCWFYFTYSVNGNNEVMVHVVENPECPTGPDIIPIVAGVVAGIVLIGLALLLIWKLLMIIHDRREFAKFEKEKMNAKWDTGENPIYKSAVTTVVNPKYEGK

SMILES	IC50 [1]	melting point
Cc1ccccc1NC(=O)Nc1ccc(NC(=O)CC(C(=O)Nc2ccc(C(=O)O)cc2)c2ccccc2)cc1 (centres unmarked) [Example 2, 4-[(4-{[4-({[(2-Methyl-phenyl)amino]carbonyl}-ami-no)phenyl]amino}-4-oxo-2-phenyl-butanoyl)amino]benzoic acid]	> 10000 nM	–
Cc1ccccc1NC(=O)Nc1ccc(CNC(=O)CC(C(=O)Nc2ccc(C(=O)O)cc2)c2ccccc2)cc1 (centres unmarked) [Example 4, 4-[(4-{[4-({[(2-Methyl-phenyl)amino]carbonyl}-ami-no)benzyl]amino}-4-oxo-2-phenyl-butanoyl)-ami-no]benzoic acid]	< 1000 nM	126 °C
Cc1ccccc1NC(=O)Nc1ccc(NC(=O)C(CC(=O)Nc2ccc(C(=O)O)cc2)c2ccccc2)cc1 (centres unmarked) [Example 1, 4-[(4-{[4-({[(2-Methylphenyl)amino]carbonyl}amino)phenyl]-amino}-4-oxo-3-phenylbutanoyl)amino]benzoic acid]	< 1000 nM	169 °C
